Molecules are shown by their SMILES. Activity calls are given as the source filed them. The rule behind the calls is not given here. Starred links: 1 amine or outer side, 2 acyl side, 3 side chain; linkers in the order of their positions; H or OH if unused. Non-standard residues stand in square brackets, D forms with d. Residues, ends and D or L forms follow the SMILES beside them. *: point of attachment. X1 = N=C(CCl)NCCCC(N[*:1])C(=O)[*:2]; Butanoyl(4-ethynyl) = C#CCCCC(=O)* Where only a bound is given, the exact number is not on record here.

Experiment [1] deals with T1, Protein arginine N-methyltransferase 1 (Homo sapiens, UniProt Q99873). The experiment in a line: Inhibition of recombinant full-length N-terminal His6-tagged PRMT1 (unknown origin) using AcH4-21 peptide substrate preincubated for 10 mins followed by substrate/14C-methyl-SAM addition and measured after 15 mins by phosphorimaging analysis based radioisotopic assay.
Target sequence in this assay (Q99873 whole entry): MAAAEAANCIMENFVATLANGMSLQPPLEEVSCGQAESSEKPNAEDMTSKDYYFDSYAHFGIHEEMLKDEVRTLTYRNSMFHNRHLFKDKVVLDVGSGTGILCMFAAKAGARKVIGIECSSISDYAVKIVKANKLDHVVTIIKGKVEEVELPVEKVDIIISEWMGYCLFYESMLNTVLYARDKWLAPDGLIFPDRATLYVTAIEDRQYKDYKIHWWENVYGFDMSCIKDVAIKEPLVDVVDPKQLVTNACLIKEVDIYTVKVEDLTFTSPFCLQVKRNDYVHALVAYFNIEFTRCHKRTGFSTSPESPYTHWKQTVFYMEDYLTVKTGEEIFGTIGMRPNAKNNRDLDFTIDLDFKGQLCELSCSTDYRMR
In experiment [2] the target is T2, Protein arginine N-methyltransferase 5 (Homo sapiens, UniProt O14744). The experiment in a line: Inhibition of recombinant full-length N-terminal His6-tagged PRMT5 (unknown origin) using AcH4-21 peptide substrate preincubated for 10 mins followed by substrate/14C-methyl-SAM addition and measured after 15 mins by phosphorimaging analysis based radioisotopic assay.

Experiment [3] deals with T1, Protein arginine N-methyltransferase 1. Nature of the experiment: Binding affinity to recombinant full-length N-terminal His6-tagged PRMT1 (unknown origin) assessed as biotin labelling of PRMT1 at >25 uM using biotin azide incubated for 30 mins by Western blot analysis.
Target sequence in this assay (Q99873 whole entry, looked up): as the sequence (Q99873 whole entry) above
In experiment [4] the target is T2, Protein arginine N-methyltransferase 5. The experiment in a line: Binding affinity to recombinant full-length N-terminal His6-tagged PRMT5 (unknown origin) assessed as biotin labelling of PRMT5 at 50 uM using biotin azide incubated for 30 mins by Western blot analysis.
The species named for experiment [5] is Homo sapiens. Nature of the experiment: Selectivity index, ratio of binding affinity to recombinant full-length N-terminal His6-tagged PRMT5 (unknown origin) assessed as biotin labelling of PRMT5 at 25 uM to binding affinity to recombinant full-length N-terminal His6-tagged PRMT1 (unknown origin) assessed as biotin labelling of PRMT1 at 25 uM.
Experiment [6] concerns the target T1, Protein arginine N-methyltransferase 1. The experiment in a line: Binding affinity to recombinant full-length N-terminal His6-tagged PRMT1 (unknown origin) assessed as biotin labelling of PRMT1 at 1 uM using biotin azide and in presence of SAM incubated for 30 mins by Western blot analysis.
Target sequence in this assay (Q99873 whole entry, looked up): as the sequence (Q99873 whole entry) above
For experiment [7] the target is unchanged. The experiment in a line: Binding affinity to recombinant full-length N-terminal His6-tagged PRMT1 (unknown origin) assessed as biotin labelling of PRMT1 at 1 uM using biotin azide and in absence of SAM incubated for 30 mins by Western blot analysis.
Target sequence in this assay (Q99873 whole entry, looked up): as the sequence (Q99873 whole entry) above
Experiment [8] shares this target. The experiment in a line: Binding affinity to recombinant full-length N-terminal His6-tagged PRMT1 (unknown origin) assessed as time needed for maximum biotin labelling of PRMT1 at 10 uM using biotin azide and in presence of SAM incubated for 30 mins by Western blot analysis.
Target sequence in this assay (Q99873 whole entry, looked up): as the sequence (Q99873 whole entry) above
Experiment [9] has the same target. The experiment in a line: Binding affinity to recombinant full-length N-terminal His6-tagged PRMT1 (unknown origin) assessed as lowest drug level for biotin labelling of PRMT1 using biotin azide and in presence of SAM incubated for 30 mins by Western blot analysis.
Target sequence in this assay (Q99873 whole entry, looked up): as the sequence (Q99873 whole entry) above
The species named for experiment [10] is Homo sapiens. The experiment in a line: Binding affinity to PRMT1 C101A mutant (unknown origin) assessed as biotin labelling of PRMT1 at <25 uM using biotin azide and in presence of SAM incubated for 30 mins by Western blot analysis.
Experiment [11] is filed under the species Homo sapiens. Nature of the experiment: Binding affinity to PRMT1 C101A mutant (unknown origin) assessed as biotin labelling of PRMT1 at >25 uM using biotin azide and in presence of SAM incubated for 30 mins by Western blot analysis.
The species named for experiment [12] is Homo sapiens. The experiment in a line: Binding affinity to PRMT1 C101A mutant (unknown origin) assessed as optimum drug level for biotin labelling of PRMT1 using biotin azide and in presence of SAM incubated for 30 mins by Western blot analysis.
Experiment [13] deals with T1, Protein arginine N-methyltransferase 1. The experiment in a line: Binding affinity to recombinant full-length N-terminal His6-tagged PRMT1 (unknown origin) assessed as biotin labelling of PRMT1 at 10 uM in presence of recombinant full-length N-terminal His6-tagged PRMT5 (unknown origin) using biotin azide and in presence of SAM incubated for 30 mins at 25 degC by Western blot analysis.
Target sequence in this assay (Q99873 whole entry, looked up): as the sequence (Q99873 whole entry) above

For experiment [14] the target is unchanged. Nature of the experiment: Binding affinity to recombinant full-length N-terminal His6-tagged PRMT1 (unknown origin) assessed as biotin labelling of PRMT1 at 10 uM in presence of recombinant full-length N-terminal His6-tagged PRMT5 (unknown origin) using biotin azide and in presence of SAM incubated for 30 mins at 37 degC by Western blot analysis.

T2 sequence (O14744 whole entry): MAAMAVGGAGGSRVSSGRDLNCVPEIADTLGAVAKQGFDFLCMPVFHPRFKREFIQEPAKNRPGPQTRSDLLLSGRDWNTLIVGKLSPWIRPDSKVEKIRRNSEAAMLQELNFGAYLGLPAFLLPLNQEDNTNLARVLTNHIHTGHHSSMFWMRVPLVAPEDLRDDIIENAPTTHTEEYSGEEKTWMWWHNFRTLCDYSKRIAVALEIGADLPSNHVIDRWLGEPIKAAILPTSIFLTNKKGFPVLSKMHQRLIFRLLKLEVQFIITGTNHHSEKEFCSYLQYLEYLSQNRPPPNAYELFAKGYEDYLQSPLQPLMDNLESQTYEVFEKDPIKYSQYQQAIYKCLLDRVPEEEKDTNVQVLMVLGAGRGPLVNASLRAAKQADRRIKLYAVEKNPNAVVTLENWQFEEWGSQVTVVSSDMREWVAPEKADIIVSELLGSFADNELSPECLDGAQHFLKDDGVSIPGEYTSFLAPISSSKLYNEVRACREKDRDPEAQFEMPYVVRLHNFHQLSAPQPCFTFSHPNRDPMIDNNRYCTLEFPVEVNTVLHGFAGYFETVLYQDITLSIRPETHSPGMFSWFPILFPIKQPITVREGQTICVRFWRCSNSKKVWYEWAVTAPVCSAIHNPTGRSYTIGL

`C#CCCCC(=O)N[C@@H](Cc1cnc[nH]1)C(=O)N[C@@H](CCCCN)C(=O)N[C@@H](Cc1cnc[nH]1)C(=O)N[C@@H](C)C(=O)NC(CCCNC(=N)CCl)C(=O)NCC(=O)NCC(=O)N[C@@H](CCCCN)C(=O)NCC(=O)N[C@@H](CC(C)C)C(=O)NCC(=O)N[C@@H](CCCCN)C(=O)NCC(=O)NCC(=O)N[C@@H](C)C(=O)N[C@@H](CCCCN)C(=O)O` (some centres undefined) ({Butanoyl(4-ethynyl)}-HKHA[X1]GGKGLGKGGAK-OH): the 50% inhibitory concentration (IC50) is 20 µM in experiment [1] and greater than 500 µM in [2]. For the same molecule, the outcome in [3], in experiment [6], in [7], in experiment [11], in experiment [13] and in experiment [14] was Active. The outcome in [4] and in experiment [10] was inactive. Besides, the Ratio in [5] is 8. Further, the TIME in [8] was determined as 0.5 h. The Activity turned out to be 0.25 µM in experiment [9] and 10 µM in [12].

The values are drawn from ChEMBL document CHEMBL4371056, “The development and characterization of a chemical probe targeting PRMT1 over PRMT5” (Bioorg Med Chem, 2019).
